# According to ChEMBL document CHEMBL1201861, “Genomics of Drug Sensitity in Cancer screening data, Wellcome Trust Sanger Institute”:
# What was measured:
# LoVo = test: cells; format: functional, cell-based; details: Homo sapiens;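 also: growth inhibition of human LoVo cells, read out with a cell viability assay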
# Description: SANGER: Inhibition of human LoVo cell growth in a cell viability assay.
# SK-MEL3 = test: cells; format: functional, cell-based, SK-MEL-3; details: Homo sapiens;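 also: growth inhibition of human SK-MEL-3 cells, read out with a cell viability assay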
# Description: SANGER: Inhibition of human SK-MEL-3 cell growth in a cell viability assay.
# BL-41 = test: cells; format: functional, cell-based; details: Homo sapiens;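 also: growth inhibition of human BL-41 cells, read out with a cell viability assay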
# Description: SANGER: Inhibition of human BL-41 cell growth in a cell viability assay.
# AU565 = test: cells; format: functional, cell-based; details: Homo sapiens;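 also: cell viability assay measuring growth inhibition of human AU565 cells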
# Description: SANGER: Inhibition of human AU565 cell growth in a cell viability assay.
# HuCCT-1 = test: cells; format: functional, cell-based, HuCCT1; details: Homo sapiens;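 also: growth inhibition of HuCCT-1 cells, read out by a cell viability assay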
# Description: SANGER: Inhibition of human HuCCT1 cell growth in a cell viability assay.
# NCI-H358 = test: cells; format: functional, cell-based; details: Homo sapiens;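 also: growth inhibition of NCI-H358 human cells, read out with a cell viability assay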
# Description: SANGER: Inhibition of human NCI-H358 cell growth in a cell viability assay.
# KYSE-140 = test: cells; format: functional, cell-based; details: Homo sapiens;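 also: cell viability assay measuring growth inhibition in human KYSE-140 cells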
# Description: SANGER: Inhibition of human KYSE-140 cell growth in a cell viability assay.
# HLE = test: cells; format: functional, cell-based; details: Homo sapiens;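 also: growth inhibition of human HLE cells, read out by a cell viability assay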
# Description: SANGER: Inhibition of human HLE cell growth in a cell viability assay.
# NY = test: cells; format: functional, cell-based; details: Homo sapiens
# Description: SANGER: Inhibition of human NY cell growth in a cell viability assay.
# NUGC-3 = test: cells; format: functional, cell-based; details: Homo sapiens;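 also: growth inhibition of human NUGC-3 cells, read out with a cell viability assay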
# Description: SANGER: Inhibition of human NUGC-3 cell growth in a cell viability assay.
# ECC4 = test: cells; format: functional, cell-based; details: Homo sapiens;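 also: growth inhibition of ECC4 cells, read out with a cell viability assay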
# Description: SANGER: Inhibition of human ECC4 cell growth in a cell viability assay.
# KYSE-270 = test: cells; format: functional, cell-based; details: Homo sapiens;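 also: cell growth inhibition measured with a viability assay in the human KYSE-270 line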
# Description: SANGER: Inhibition of human KYSE-270 cell growth in a cell viability assay.
# SK-MEL-28 = test: cells; format: functional, cell-based; details: Homo sapiens;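 also: growth inhibition of human SK-MEL-28 cells, read out with a cell viability assay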
# Description: SANGER: Inhibition of human SK-MEL-28 cell growth in a cell viability assay.
# HSC-2 = test: cells; format: functional, cell-based; details: Homo sapiens;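 also: growth inhibition of human HSC-2 cells, read out by a cell viability assay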
# Description: SANGER: Inhibition of human HSC-2 cell growth in a cell viability assay.
# CAL-27 = test: cells; format: functional, cell-based; details: Homo sapiens;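 also: Viability-based readout, IC50 reflecting inhibition of CAL-27 cell growth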
# Description: SANGER: Inhibition of human CAL-27 cell growth in a cell viability assay.
# NCI-N87 = test: cells; format: functional, cell-based; details: Homo sapiens;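 also: growth inhibition of human NCI-N87 cells, read out with a cell viability assay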
# Description: SANGER: Inhibition of human NCI-N87 cell growth in a cell viability assay.
# SIG-M5 = test: cells; format: functional, cell-based; details: Homo sapiens;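 also: cell viability assay read-out, measuring how strongly growth of cultured human SIG-M5 cells is inhibited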
# Description: SANGER: Inhibition of human SIG-M5 cell growth in a cell viability assay.
# A-375 = test: cells; format: functional, cell-based; details: Homo sapiens;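 also: growth inhibition of A375 cells, read out with a cell viability assay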
# Description: SANGER: Inhibition of human A375 cell growth in a cell viability assay.
# OPM-2 = test: cells; format: functional, cell-based; details: Homo sapiens;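 also: growth of OPM-2 cells measured with a viability assay, IC50 for suppression of proliferation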
# Description: SANGER: Inhibition of human OPM-2 cell growth in a cell viability assay.
# C32 = test: cells; format: functional, cell-based; details: Homo sapiens;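 also: cell viability assay, with IC50 reflecting inhibition of C32 cell growth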
# Description: SANGER: Inhibition of human C32 cell growth in a cell viability assay.
# SNU-387 = test: cells; format: functional, cell-based; details: Homo sapiens
# Description: SANGER: Inhibition of human SNU-387 cell growth in a cell viability assay.
# HT-3 = test: cells; format: functional, cell-based; details: Homo sapiens;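 also: growth inhibition measured with a cell viability readout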
# Description: SANGER: Inhibition of human HT-3 cell growth in a cell viability assay.
# YKG-1 = test: cells; format: functional, cell-based; details: Homo sapiens;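 also: cell growth inhibition, read out with a viability assay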
# Description: SANGER: Inhibition of human YKG-1 cell growth in a cell viability assay.
# SCLC-21H = test: cells; format: functional, cell-based; details: Homo sapiens;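 also: growth inhibition of cultured human SCLC-21H cells, read out with a cell viability assay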
# Description: SANGER: Inhibition of human SCLC-21H cell growth in a cell viability assay.
# MEL-JUSO = test: cells; format: functional, cell-based; details: Homo sapiens;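 also: growth inhibition of human MEL-JUSO cells, read out with a cell viability assay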
# Description: SANGER: Inhibition of human MEL-JUSO cell growth in a cell viability assay.
# HSC-4 = test: cells; format: functional, cell-based; details: Homo sapiens;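 also: growth inhibition of human HSC-4 cells, read out with a cell viability assay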
# Description: SANGER: Inhibition of human HSC-4 cell growth in a cell viability assay.
# COR-L23 = test: cells; format: functional, cell-based; details: Homo sapiens;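 also: cell viability assay measuring how strongly compounds suppress growth of COR-L23 cells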
# Description: SANGER: Inhibition of human COR-L23 cell growth in a cell viability assay.
# KMS-12-PE = test: cells; format: functional, cell-based; details: Homo sapiens;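 also: growth inhibition of human KMS-12-PE cells, measured with a cell viability assay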
# Description: SANGER: Inhibition of human KMS-12-PE cell growth in a cell viability assay.
# CAKI-1 = test: cells; format: functional, cell-based; details: Homo sapiens;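 also: growth inhibition of CAKI-1 cells, measured by a cell viability assay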
# Description: SANGER: Inhibition of human CAKI-1 cell growth in a cell viability assay.
# NCI-H2405 = test: cells; format: functional, cell-based; details: Homo sapiens;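 also: growth inhibition of the human cell line, read out with a cell viability assay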
# Description: SANGER: Inhibition of human NCI-H2405 cell growth in a cell viability assay.
# TALL-1 = test: cells; format: functional, cell-based; details: Homo sapiens;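 also: growth inhibition of cultured human TALL-1 cells, read out by a cell viability assay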
# Description: SANGER: Inhibition of human TALL-1 cell growth in a cell viability assay.
# EVSA-T = test: cells; format: functional, cell-based; details: Homo sapiens;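 also: growth inhibition of EVSA-T cells, read out with a cell viability assay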
# Description: SANGER: Inhibition of human EVSA-T cell growth in a cell viability assay.
# NCI-H1793 = test: cells; format: functional, cell-based; details: Homo sapiens;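 also: cell growth inhibition, read out by a cell viability assay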
# Description: SANGER: Inhibition of human NCI-H1793 cell growth in a cell viability assay.
# HCC1954 = test: cells; format: functional, cell-based; details: Homo sapiens;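 also: growth inhibition of human HCC1954 cells, read out with a cell viability assay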
# Description: SANGER: Inhibition of human HCC1954 cell growth in a cell viability assay.
# OVCAR-8 = test: cells; format: functional, cell-based; details: Homo sapiens;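 also: growth inhibition of human OVCAR-8 cells, read out by a cell viability assay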
# Description: SANGER: Inhibition of human OVCAR-8 cell growth in a cell viability assay.
# MDA-MB-361 = test: cells; format: functional, cell-based; details: Homo sapiens
# U-118-MG = test: cells; format: functional, cell-based; details: Homo sapiens
# Description: SANGER: Inhibition of human U-118-MG cell growth in a cell viability assay.
# MKN-7 = test: cells; format: functional, cell-based; details: Homo sapiens;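 also: growth inhibition of MKN-7 cells, read out with a cell viability assay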
# Description: SANGER: Inhibition of human MKN7 cell growth in a cell viability assay.
# NCI-H2170 = test: cells; format: functional, cell-based; details: Homo sapiens;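 also: cell viability assay measuring growth inhibition of human NCI-H2170 cancer cells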
# Description: SANGER: Inhibition of human NCI-H2170 cell growth in a cell viability assay.
# HCC1599 = test: cells; format: functional, cell-based; details: Homo sapiens;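 also: growth inhibition of HCC1599 cells, read out in a cell viability assay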
# Description: SANGER: Inhibition of human HCC1599 cell growth in a cell viability assay.
# SR = test: cells; format: functional, cell-based; details: Homo sapiens
# Description: SANGER: Inhibition of human SR cell growth in a cell viability assay.
# NCI-H2171 = test: cells; format: functional, cell-based; details: Homo sapiens;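 also: growth inhibition of human NCI-H2171 cells, read out by a cell viability assay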
# Description: SANGER: Inhibition of human NCI-H2171 cell growth in a cell viability assay.
# BC-3 = test: cells; format: functional, cell-based; details: Homo sapiens;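 also: cell viability assay measuring growth inhibition of human BC-3 cells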
# Description: SANGER: Inhibition of human BC-3 cell growth in a cell viability assay.
# KYSE-180 = test: cells; format: functional, cell-based; details: Homo sapiens;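 also: growth inhibition of KYSE-180 cells, read out with a cell viability assay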
# Description: SANGER: Inhibition of human KYSE-180 cell growth in a cell viability assay.
# SK-MES-1 = test: cells; format: functional, cell-based; details: Homo sapiens;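 also: growth inhibition of human SK-MES-1 cells, read out with a cell viability assay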
# Description: SANGER: Inhibition of human SK-MES-1 cell growth in a cell viability assay.
# NCCIT = test: SANGER: Inhibition of human NCCIT cell growth in a cell viability assay.; format: functional, cell-based
# NCI-H1417 = test: cells; format: functional, cell-based; details: Homo sapiens;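 also: human NCI-H1417 cells, growth inhibition determined with a cell viability readout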
# Description: SANGER: Inhibition of human NCI-H1417 cell growth in a cell viability assay.
# GMS-10 = test: cells; format: functional, cell-based; details: Homo sapiens;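 also: growth inhibition of GMS-10 cells, read out as cell viability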
# Description: SANGER: Inhibition of human GMS-10 cell growth in a cell viability assay.
# CESS = test: SANGER: Inhibition of human CESS cell growth in a cell viability assay.; format: functional, cell-based
# AN3-CA = test: cells; format: functional, cell-based; details: Homo sapiens;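 also: growth inhibition of human AN3-CA cells measured by a cell viability assay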
# Description: SANGER: Inhibition of human AN3-CA cell growth in a cell viability assay.
# CA46 = test: cells; format: functional, cell-based; details: Homo sapiens;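 also: growth inhibition of human CA46 cells, read out by a cell viability assay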
# Description: SANGER: Inhibition of human CA46 cell growth in a cell viability assay.
# HEC-1 = test: cells; format: functional, cell-based; details: Homo sapiens;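 also: growth inhibition of the cell line, read out with a cell viability assay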
# Description: SANGER: Inhibition of human HEC-1 cell growth in a cell viability assay.
# MFE-280 = test: cells; format: functional, cell-based; details: Homo sapiens;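 also: growth inhibition of MFE-280 cells, determined with a cell viability readout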
# Description: SANGER: Inhibition of human MFE-280 cell growth in a cell viability assay.
# BHY = test: cells; format: functional, cell-based; details: Homo sapiens;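 also: cell growth inhibition read out by a viability assay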
# Description: SANGER: Inhibition of human BHY cell growth in a cell viability assay.
# PF-382 = test: cells; format: functional, cell-based; details: Homo sapiens
# Description: SANGER: Inhibition of human PF-382 cell growth in a cell viability assay.
# MEL-HO = test: cells; format: functional, cell-based; details: Homo sapiens
# Description: SANGER: Inhibition of human MEL-HO cell growth in a cell viability assay.
# HOP-92 = test: cells; format: functional, cell-based; details: Homo sapiens;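 also: cell viability readout, with IC50 reflecting inhibition of HOP-92 cell growth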
# Description: SANGER: Inhibition of human HOP-92 cell growth in a cell viability assay.
# KOSC-2 = test: cells; format: functional, cell-based; details: Homo sapiens;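 also: growth inhibition of KOSC-2 cells, read out by a cell viability assay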
# Description: SANGER: Inhibition of human KOSC-2 cell growth in a cell viability assay.
# GCT = test: cells; format: functional, cell-based; details: Homo sapiens
# Description: SANGER: Inhibition of human GCT cell growth in a cell viability assay.
# T84 = test: cells; format: functional, cell-based; details: Homo sapiens
# Description: SANGER: Inhibition of human T84 cell growth in a cell viability assay.
# HCC1395 = test: cells; format: functional, cell-based; details: Homo sapiens
# Description: SANGER: Inhibition of human HCC1395 cell growth in a cell viability assay.
# U2OS = test: cells; format: functional, cell-based, U-2-OS; details: Homo sapiens
# Description: SANGER: Inhibition of human U-2-OS cell growth in a cell viability assay.
# SKG-IIIa = test: cells; format: functional, cell-based; details: Homo sapiens
# Description: SANGER: Inhibition of human SKG-IIIa cell growth in a cell viability assay.
# D-392MG = test: cells; format: functional, cell-based; details: Homo sapiens
# KP-N-YN = test: cells; format: functional, cell-based; details: Homo sapiens
# Description: SANGER: Inhibition of human KP-N-YN cell growth in a cell viability assay.
smiles,measurement,setting,value
CO[C@@]12[C@H](COC(N)=O)C3=C(C(=O)C(C)=C(N)C3=O)N1C[C@@H]1N[C@@H]12 [MITOMYCIN],IC50,LoVo,431 nM
same,IC50,SK-MEL3,711 nM
same,IC50,BL-41,295 nM
same,IC50,AU565,501 nM
same,IC50,HuCCT-1,904 nM
same,IC50,NCI-H358,276 nM
same,IC50,KYSE-140,381 nM
same,IC50,HLE,498 nM
same,IC50,NY,657 nM
same,IC50,NUGC-3,16.9 nM
same,IC50,ECC4,5070 nM
same,IC50,KYSE-270,103 nM
same,IC50,SK-MEL-28,> 16000 nM
same,IC50,HSC-2,83.4 nM
same,IC50,CAL-27,41.2 nM
same,IC50,NCI-N87,438 nM
same,IC50,SIG-M5,< 62.5 nM
same,IC50,A-375,139 nM
same,IC50,OPM-2,6350 nM
same,IC50,C32,1530 nM
same,IC50,SNU-387,2930 nM
same,IC50,HT-3,< 62.5 nM
same,IC50,YKG-1,545 nM
same,IC50,SCLC-21H,963 nM
same,IC50,MEL-JUSO,51.3 nM
same,IC50,HSC-4,434 nM
same,IC50,COR-L23,241 nM
same,IC50,KMS-12-PE,3830 nM
same,IC50,CAKI-1,23.3 nM
same,IC50,NCI-H2405,294 nM
same,IC50,TALL-1,2400 nM
same,IC50,EVSA-T,1570 nM
same,IC50,NCI-H1793,1810 nM
same,IC50,HCC1954,2280 nM
same,IC50,OVCAR-8,176 nM
same,IC50,MDA-MB-361,809 nM
same,IC50,U-118-MG,3140 nM
same,IC50,MKN-7,> 16000 nM
same,IC50,NCI-H2170,< 62.5 nM
same,IC50,HCC1599,120 nM
same,IC50,SR,< 62.5 nM
same,IC50,NCI-H2171,1500 nM
same,IC50,BC-3,212 nM
same,IC50,KYSE-180,202 nM
same,IC50,SK-MES-1,51.1 nM
same,IC50,NCCIT,1010 nM
same,IC50,NCI-H1417,237 nM
same,IC50,GMS-10,3840 nM
same,IC50,CESS,225 nM
same,IC50,AN3-CA,523 nM
same,IC50,CA46,1020 nM
same,IC50,HEC-1,698 nM
same,IC50,MFE-280,8350 nM
same,IC50,BHY,75.3 nM
same,IC50,PF-382,251 nM
same,IC50,MEL-HO,39.4 nM
same,IC50,HOP-92,1940 nM
same,IC50,KOSC-2,1530 nM
same,IC50,GCT,4600 nM
same,IC50,T84,173 nM
same,IC50,HCC1395,1060 nM
same,IC50,U2OS,> 16000 nM
same,IC50,SKG-IIIa,377 nM
same,IC50,D-392MG,6680 nM
CC(=O)c1c(C)c2cnc(Nc3ccc(N4CCNCC4)cn3)nc2n(C2CCCC2)c1=O [PALBOCICLIB],IC50,LoVo,> 4000 nM
same,IC50,SK-MEL3,> 4000 nM
same,IC50,AU565,> 4000 nM
same,IC50,HuCCT-1,> 4000 nM
same,IC50,KYSE-140,> 4000 nM
same,IC50,HLE,> 4000 nM
same,IC50,NY,> 4000 nM
same,IC50,NUGC-3,2830 nM
same,IC50,KYSE-270,> 4000 nM
same,IC50,HSC-2,> 4000 nM
same,IC50,CAL-27,495 nM
same,IC50,NCI-N87,> 4000 nM
same,IC50,C32,> 4000 nM
same,IC50,SNU-387,> 4000 nM
same,IC50,HT-3,> 4000 nM
same,IC50,YKG-1,1810 nM
same,IC50,COR-L23,1230 nM
same,IC50,CAKI-1,> 4000 nM
same,IC50,NCI-H2405,> 4000 nM
same,IC50,KP-N-YN,> 4000 nM
same,IC50,NCI-H1793,> 4000 nM
same,IC50,HCC1954,> 4000 nM
same,IC50,OVCAR-8,> 4000 nM
same,IC50,MDA-MB-361,> 4000 nM
same,IC50,U-118-MG,> 4000 nM
same,IC50,MKN-7,> 4000 nM
same,IC50,NCI-H2170,> 4000 nM
same,IC50,KYSE-180,> 4000 nM
same,IC50,SK-MES-1,2620 nM
same,IC50,GMS-10,> 4000 nM
same,IC50,AN3-CA,> 4000 nM
same,IC50,HEC-1,> 4000 nM
same,IC50,MFE-280,> 4000 nM
same,IC50,BHY,1470 nM
same,IC50,MEL-HO,> 4000 nM
same,IC50,HOP-92,3500 nM
same,IC50,KOSC-2,467 nM
same,IC50,GCT,> 4000 nM
same,IC50,T84,> 4000 nM
same,IC50,HCC1395,> 4000 nM
same,IC50,U2OS,3730 nM
same,IC50,SKG-IIIa,> 4000 nM
same,IC50,D-392MG,> 4000 nM
CC(C)=CC[C@@H](O)C1=CC(=O)c2c(O)ccc(O)c2C1=O [SHIKONIN],IC50,LoVo,1340 nM
same,IC50,SK-MEL3,2640 nM
same,IC50,BL-41,483 nM
same,IC50,AU565,1240 nM
same,IC50,HuCCT-1,483 nM
same,IC50,NCI-H358,658 nM
same,IC50,KYSE-140,374 nM
same,IC50,HLE,88.3 nM
same,IC50,NY,1050 nM
same,IC50,NUGC-3,765 nM
same,IC50,ECC4,1200 nM
same,IC50,KYSE-270,217 nM
same,IC50,SK-MEL-28,> 16000 nM
same,IC50,HSC-2,223 nM
same,IC50,CAL-27,> 16000 nM
same,IC50,NCI-N87,2940 nM
same,IC50,SIG-M5,170 nM
same,IC50,A-375,311 nM
same,IC50,OPM-2,343 nM
same,IC50,C32,2680 nM
same,IC50,SNU-387,1070 nM
same,IC50,HT-3,948 nM
same,IC50,YKG-1,229 nM
same,IC50,SCLC-21H,1360 nM
same,IC50,MEL-JUSO,540 nM
same,IC50,HSC-4,2120 nM
same,IC50,COR-L23,301 nM
same,IC50,KMS-12-PE,559 nM
same,IC50,CAKI-1,894 nM
same,IC50,NCI-H2405,675 nM
same,IC50,TALL-1,> 16000 nM
same,IC50,EVSA-T,410 nM
same,IC50,NCI-H1793,> 16000 nM
same,IC50,HCC1954,902 nM
same,IC50,OVCAR-8,460 nM
same,IC50,MDA-MB-361,1730 nM
same,IC50,U-118-MG,842 nM
same,IC50,MKN-7,2210 nM
same,IC50,NCI-H2170,1720 nM
same,IC50,HCC1599,388 nM
same,IC50,SR,141 nM
same,IC50,NCI-H2171,909 nM
same,IC50,BC-3,926 nM
same,IC50,KYSE-180,1010 nM
same,IC50,SK-MES-1,6290 nM
same,IC50,NCCIT,517 nM
same,IC50,NCI-H1417,816 nM
same,IC50,GMS-10,11500 nM
same,IC50,CESS,776 nM
same,IC50,AN3-CA,79.6 nM
same,IC50,CA46,192 nM
same,IC50,HEC-1,1130 nM
same,IC50,MFE-280,4950 nM
same,IC50,BHY,564 nM
same,IC50,PF-382,790 nM
same,IC50,MEL-HO,149 nM
same,IC50,HOP-92,2010 nM
same,IC50,KOSC-2,1490 nM
same,IC50,GCT,1150 nM
same,IC50,T84,14500 nM
same,IC50,HCC1395,15700 nM
same,IC50,U2OS,> 16000 nM
same,IC50,SKG-IIIa,4390 nM
same,IC50,D-392MG,915 nM
